Reference: US5475032A, “2,4-disulfonyl phenyl butyl nitrone, its salts, and their use as pharmaceuticals” (Oklahoma Medical Research Foundation, priority 1995, dated 1995)
Where two headings read alike, the source gives them in different places.

Experiments:
[1] = tested on: temporal/spatial short term memory following ischemia; assay: 8-arm radial maze test 24 hours after ischemia (Example 6); type: in vivo, gerbil
Description: Brain injury can manifest itself as behavioral changes. In this experiment, young adult (3-4 months of age) gerbils were tested to determine their ability to perform an 8-arm maze test 24 hours following an ischemic event as described in Example 1. As compared to nonischemic animals, when untreated they committed many more errors. PBN and compound I were administered to some of the test animals.

creatine kinase (CK) = assay: protection of creatine kinase against βAP 25-35 (Example 11); type: biochemical, gerbil; conditions: co-incubation with 0.4 mg/ml BAP 25-35
Description: (§1) Cytosolic fractions from gerbil neocortex were prepared and enzyme activities determined. Samples were incubated in the presence of different concentrations of the peptide for 10 min prior to assay. Solid symbols represent the effects of the naturally occurring 25-35 fragment. […] Each point is the mean (+/- s.e.) of 5 observations. βAP derived and other cellular sources of free radicals are an important determinant of the initiation and progression of AD.
(§2) Each point is the mean (+/- s.e.) of 3 observations.

[2] = tested on: glutamine synthetase (GS); assay: protection of glutamine synthetase against βAP 25-35 (Example 11); type: biochemical, gerbil; conditions: co-incubation with 0.4 mg/ml BAP 25-35
Description: as §1, §2

[3] = tested on: infarct volume following middle cerebral artery occlusion; conditions: cited from earlier work
[4] = tested on: neuronal loss following ischemia; assay: protection from neuronal loss, i.v. 60 min after reperfusion onset following 5 min ischemia (Example 5); type: in vivo, gerbil; conditions: for protection for neuronal loss (neuronal density): 60 min after reperfusion onset
[5] = tested on: normal or uninjured cells; conditions: cited from earlier work
[6] = tested on: neuron loss following brain ischemia and reperfusion injury; assay: neuronal density after 5 min bilateral carotid occlusion, compound i.p. 30 min before ischemia (Example 3); type: in vivo, gerbil; conditions: 30 min before ischemia
Description: In the experiments a test compound was administered to groups of six gerbils i.p. as a single dose 30 min before 5 min bilateral carotid occlusion. The density of neuronal nuclei in a 100 micron was measured. Two controls were present--controls which received no test compound and controls which received no test compound and no brain ischemia.

severe trauma ischemia = conditions: in vivo; cited from earlier work
[7] = comparative tests: nitrone pretreatment combined with adriamycin (Example 13); type: in vivo, mouse; conditions: mouse, in vivo, ip; 300 mg/kg with adriamycin; read-out: combined toxicity (lethality)
Source text: (§3) All injections were intraperitoneal.

[8] = tested on: acute lethal effects of adriamycin; assay: as above; type: in vivo, mouse
Source text: as §3

[9] = tested on: infarct volume following middle cerebral occlusion; assay: infarct volume after middle cerebral occlusion (Example 7); type: in vivo, C57BL/6J mice; conditions: from 60 min after occlusion for 24 hours
Description: The ability of the compound of the invention to reduce infarct volume following an ischemic event was determined.

[10] = doses demonstrated to be possible; conditions: up to 1000 mg/kg/hour and higher, or i.v. bolus 10 to 2500 mg/kg
[11] = tested on: lethality from 10 min ischemia; assay: lethality protection in aged gerbils from 10 min ischemia (Example 8); type: in vivo, gerbil; conditions: 30 min before ischemia
[12] = tested on: neuron loss following brain ischemia and reperfusion injury; assay: neuronal density, post-ischemia treatment, compound i.p. 30 min after reperfusion following 5 min ischemia (Example 4); type: in vivo, gerbil
C57BL/6L mice = assay: acute lethality, single i.p. doses of nitrone (Example 9); type: in vivo, mouse; conditions: PBN at 560 mg/kg, Compound I at doses nearly twenty times as great
Description: As detailed in Table 7. acute lethality in C57BL/6L mice was determined based upon varying sizes of single i.p. doses of nitrone.

CC(C)(C)[N+]([O-])=Cc1ccccc1 [PBN, Alpha-phenyl tert butyl nitrone]
errors in 8-arm radial maze ([1]; 1.0 mg/kg/hr for 24 hours): 29.8 errors | errors in 8-arm radial maze ([1]; 32 mg/kg/hr for 24 hours): 18.19 errors | errors in 8-arm radial maze ([1]; 50 mg/kg/hr for 24 hours): 6.23 errors | errors in 8-arm radial maze ([1]; 100 mg/kg/hr for 24 hours): 5.83 errors | error levels ([1]; high doses): less effective | protection of CK against the effects of βAP fragments (creatine kinase (CK)): asymptotically leveling out at a substantially incomplete level of protection | protection of GS against the effects of βAP fragments [2]: asymptotically leveling out at a substantially incomplete level of protection | infarct volume reduction ([3]; 100 mg/kg i.p. at 0.5, 5, 17, 29 and 41 hours post stroke): approximately 50% | infarct volume reduction ([3]; 100 mg/kg i.p. at 5, 17, 29, and 41 hours post stroke): approximately 50% | protection for neuronal loss (neuronal density) ([4]; 0.5 mg/kg single dose i.v.): 0.83 | protection for neuronal loss (neuronal density) ([4]; 1.0 mg/kg single dose i.v.): 1.07 | protection for neuronal loss (neuronal density) ([4]; 10 mg/kg single dose i.v.): 1.23 | effect on neuronal density in control gerbils ([4]; control gerbils without brain injury): Neither PBN nor Compound I. had an effect on neuronal density | effect on normal or uninjured cells [5]: no measurable effect on normal or uninjured cells | Neuronal nuclei/100 micron field ([6]; 3.2 mg/kg i.p.): 0.43 Neuronal nuclei/100 micron field | Neuronal nuclei/100 micron field ([6]; 10 mg/kg i.p.): 1.13 Neuronal nuclei/100 micron field | Neuronal nuclei/100 micron field ([6]; 32 mg/kg i.p.): 1.83 Neuronal nuclei/100 micron field | Neuronal nuclei/100 micron field ([6]; 50 mg/kg i.p.): 3.11 Neuronal nuclei/100 micron field | Neuronal nuclei/100 micron field ([6]; 100 mg/kg i.p.): 3.68 Neuronal nuclei/100 micron field | Neuronal nuclei/100 micron field ([6]; 320 mg/kg i.p.): 3.78 Neuronal nuclei/100 micron field | Neuronal nuclei/100 micron field ([6]; 1000 mg/kg i.p.): Toxic | Neuronal nuclei/100 micron field ([6]; 3200 mg/kg i.p.): Toxic | survival of treated animals vs controls (severe trauma ischemia): more likely to survive than controls | mortality [7]: 10 to 20% | sedation ([8]; 100 mg/kg): slight sedation | sedation ([8]; 300 mg/kg): marked sedation | Infarct Volume ([9]; 1.0 mg/kg/hr i.v.): 17.7 mm^3 | Infarct Volume ([9]; 10 mg/kg/hr i.v.): 13.8 mm^3 | Infarct Volume ([9]; 100 mg/kg/hr i.v.): Toxic | death or acute toxicity [10]: death or acute toxicity | lethality protection (% survived) ([11]; 10 mg/kg): 42% | lethality protection (% survived) ([11]; 32 mg/kg): 50% | lethality protection (% survived) ([11]; 100 mg/kg): 75% | lethality protection (% survived) ([11]; 320 mg/kg): 92% | lethality protection ([11]; Compound I: at high levels): only partially effective | Neuronal nuclei/100 micron field ([12]; 32 mg/kg i.p.): 1.09 Neuronal nuclei/100 micron field | Neuronal nuclei/100 micron field ([12]; 50 mg/kg i.p.): 1.85 Neuronal nuclei/100 micron field | Neuronal nuclei/100 micron field ([12]; 100 mg/kg i.p.): 2.11 Neuronal nuclei/100 micron field | Neuronal nuclei/100 micron field ([12]; 320 mg/kg i.p.): 2.25 Neuronal nuclei/100 micron field | Neuronal nuclei/100 micron field ([12]; 1000 mg/kg i.p.): Toxic | toxicity (C57BL/6L mice): significant toxicity
